In patent US10189839B2, “Tricyclic imidazole compounds as inhibitors of tryptophan hydroxylase” (ACTELION PHARMACEUTICALS LTD, priority 2013, dated 2019):

Molecular target: T1, full length human TPH1 (Homo sapiens, UniProt P17752)
T1 construct: To generate the enzyme, full length human TPH1 is cloned into the plasmid pET20b(+); made in house; host or cells: E. coli
T1 sequence (P17752 1-444): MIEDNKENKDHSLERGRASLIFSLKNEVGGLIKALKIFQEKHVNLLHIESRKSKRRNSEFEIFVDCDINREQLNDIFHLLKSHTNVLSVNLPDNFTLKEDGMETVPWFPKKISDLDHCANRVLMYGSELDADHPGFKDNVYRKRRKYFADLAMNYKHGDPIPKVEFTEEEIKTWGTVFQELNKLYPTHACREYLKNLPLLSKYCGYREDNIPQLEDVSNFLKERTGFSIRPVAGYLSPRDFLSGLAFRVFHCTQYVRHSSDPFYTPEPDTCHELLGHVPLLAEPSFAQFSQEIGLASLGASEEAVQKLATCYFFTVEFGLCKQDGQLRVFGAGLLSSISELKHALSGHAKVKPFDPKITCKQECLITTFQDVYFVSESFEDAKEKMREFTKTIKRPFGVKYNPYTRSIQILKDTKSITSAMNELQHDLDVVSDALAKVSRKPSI
Test: Biochemical in vitro assay using fluorescence readout (TPH1 enzyme activity)
Settings: Table 1, mean where determined several times
How it was run: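 IC50 (mean of repeats) derived from 5-hydroxy-L-tryptophan fluorescence at 540 nm (300 nm excitation) relative to vehicle, after perchloric acid stop. Reaction: 60 min, 15° C., pH 7.6 Tris-HCl, 40 μM L-tryptophan, 100 μM 6-methyltetrahydropterine, DTT, catalase, with 40-80 nM purified full-length human TPH1 from E. coli.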

Row | SMILES | IC50
1 | CCc1nc(NS(C)(=O)=O)ccc1OCC(=O)N1CCc2nc3n(c2C1c1ccc(C2CC2)cc1F)CCS3 (centres unmarked) [Example 4.3.1, N-(5-(2-(5-(4-cyclopropyl-2-fluorophenyl)-2,3,7,8-tetrahydrothiazolo[2′,3′:2,3]imidazo[4,5-c]pyridin-6(5H)-yl)-2-oxoethoxy)-6-ethylpyridin-2-yl)methanesulfonamide] | 0.006 µM
2 | CS(=O)(=O)Nc1ccc(OCC(=O)N2CCc3nc4n(c3C2c2ccc(C3CC3)cc2F)CCS4)c(Cl)n1 (centres unmarked) [Example 4.3.2, N-(6-chloro-5-(2-(5-(4-cyclopropyl-2-fluorophenyl)-2,3,7,8-tetrahydrothiazolo[2′,3′:2,3]imidazo[4,5-c]pyridin-6(5H)-yl)-2-oxoethoxy)pyridin-2-yl)methanesulfonamide] | 0.01 µM
3 | O=C(NC1CC1)c1ccc(OCC(=O)N2CCc3nc4n(c3C2c2ccc(C3CC3)cc2F)CCS4)c(Cl)n1 (centres unmarked) [Example 4.3.3, 6-chloro-N-cyclopropyl-5-(2-(5-(4-cyclopropyl-2-fluorophenyl)-2,3,7,8-tetrahydrothiazolo[2′,3′:2,3]imidazo[4,5-c]pyridin-6(5H)-yl)-2-oxoethoxy)picolinamide] | 0.014 µM
4 | CCc1nc(NS(C)(=O)=O)ncc1OCC(=O)N1CCc2nc3n(c2C1c1ccc(C2CC2)cc1F)CCS3 (centres unmarked) [Example 4.3.4, N-(5-(2-(5-(4-cyclopropyl-2-fluorophenyl)-2,3,7,8-tetrahydrothiazolo[2′,3′:2,3]imidazo[4,5-c]pyridin-6(5H)-yl)-2-oxoethoxy)-4-ethylpyrimidin-2-yl)methanesulfonamide] | 0.025 µM
5 | CCc1nc(NS(C)(=O)=O)ccc1OCC(=O)N1CCc2nc3n(c2C1c1ccc(C)c(F)c1F)CCS3 (centres unmarked) [Example 4.4.1, N-(5-(2-(5-(2,3-difluoro-4-methylphenyl)-2,3,7,8-tetrahydrothiazolo[2′,3′:2,3]imidazo[4,5-c]pyridin-6(5H)-yl)-2-oxoethoxy)-6-ethylpyridin-2-yl)methanesulfonamide] | 0.006 µM
6 | Cc1ccc(C2c3c(nc4n3CCS4)CCN2C(=O)COc2ccc(C(=O)NC3CC3)nc2Cl)c(F)c1F (centres unmarked) [Example 4.4.2, 6-chloro-N-cyclopropyl-5-(2-(5-(2,3-difluoro-4-methylphenyl)-2,3,7,8-tetrahydrothiazolo[2′,3′:2,3]imidazo[4,5-c]pyridin-6(5H)-yl)-2-oxoethoxy)picolinamide] | 0.015 µM
7 | CCc1nc(NS(C)(=O)=O)ccc1OCC(=O)N1CCc2nc3n(c2C1c1sc(C)nc1C)CCS3 (centres unmarked) [Example 4.5.1, N-(5-(2-(5-(2,4-dimethylthiazol-5-yl)-2,3,7,8-tetrahydrothiazolo[2′,3′:2,3]imidazo[4,5-c]pyridin-6(5H)-yl)-2-oxoethoxy)-6-ethylpyridin-2-yl)methanesulfonamide] | 0.016 µM
8 | CCc1nc(N2CCCS2(=O)=O)ccc1OCC(=O)N1CCc2nc3n(c2C1c1sc(C)nc1C)CCS3 (centres unmarked) [Example 4.5.2, 1-(5-(2,4-dimethylthiazol-5-yl)-2,3,7,8-tetrahydrothiazolo[2′,3′:2,3]imidazo[4,5-c]pyridin-6(5H)-yl)-2-((6-(1,1-dioxidoisothiazolidin-2-yl)-2-ethylpyridin-3-yl)oxy)ethanone] | 0.01 µM
9 | CCc1nc(C(=O)NC2CC2)ccc1OCC(=O)N1CCc2nc3n(c2C1c1sc(C)nc1C)CCS3 (centres unmarked) [Example 4.5.3, N-cyclopropyl-5-(2-(5-(2,4-dimethylthiazol-5-yl)-2,3,7,8-tetrahydrothiazolo[2′,3′:2,3]imidazo[4,5-c]pyridin-6(5H)-yl)-2-oxoethoxy)-6-ethylpicolinamide] | 0.006 µM
10 | CN(C)C(=O)c1ccc(OCC(=O)N2CCc3nc4n(c3C2c2sccc2F)CCS4)c(Cl)n1 (centres unmarked) [Example 4.6.1, 6-chloro-5-(2-(5-(3-fluorothiophen-2-yl)-2,3,7,8-tetrahydrothiazolo[2′,3′:2,3]imidazo[4,5-c]pyridin-6(5H)-yl)-2-oxoethoxy)-N,N-dimethylpicolinamide] | 0.028 µM
11 | CS(=O)(=O)Nc1ccc(OCC(=O)N2CCc3nc4n(c3C2c2sccc2F)CCS4)c(Cl)n1 (centres unmarked) [Example 4.6.2, N-(6-chloro-5-(2-(5-(3-fluorothiophen-2-yl)-2,3,7,8-tetrahydrothiazolo[2′,3′:2,3]imidazo[4,5-c]pyridin-6(5H)-yl)-2-oxoethoxy)pyridin-2-yl)methanesulfonamide] | 0.058 µM
12 | CCc1nc(NS(C)(=O)=O)ccc1OCC(=O)N1CCc2nc3n(c2C1c1sccc1F)CCS3 (centres unmarked) [Example 4.6.3, N-(6-ethyl-5-(2-(5-(3-fluorothiophen-2-yl)-2,3,7,8-tetrahydrothiazolo[2′,3′:2,3]imidazo[4,5-c]pyridin-6(5H)-yl)-2-oxoethoxy)pyridin-2-yl)methanesulfonamide] | 0.019 µM
13 | CCc1nc(NS(C)(=O)=O)ccc1OCC(=O)N1CCc2nc3n(c2C1c1cc(F)c(C)cc1F)CCS3 (centres unmarked) [Example 4.7.1, N-(5-(2-(5-(2,5-difluoro-4-methylphenyl)-2,3,7,8-tetrahydrothiazolo[2′,3′:2,3]imidazo[4,5-c]pyridin-6(5H)-yl)-2-oxoethoxy)-6-ethylpyridin-2-yl)methanesulfonamide] | 0.006 µM
14 | CC(=O)N1CCn2c(nc3c2C(c2ccc(Cl)cc2F)N(C(=O)COc2ccc(N4CC(F)(F)C4)nc2Cl)CC3)C1 (centres unmarked) [Example 5.1.1, 1-(7-acetyl-1-(4-chloro-2-fluorophenyl)-3,4,6,7,8,9-hexahydropyrido[4′,3′:4,5]imida-zo[1,2-a]pyrazin-2(1H)-yl)-2-((2-chloro-6-(3,3-difluoroazetidin-1-yl)pyridin-3-yl)oxy)ethanone] | 0.007 µM
15 | CNC(=O)c1ccc(OCC(=O)N2CCc3nc4n(c3C2c2ccc(Cl)cc2F)CCN(C(C)=O)C4)c(Cl)n1 (centres unmarked) [Example 5.1.2, 5-(2-(7-acetyl-1-(4-chloro-2-fluorophenyl)-3,4,6,7,8,9-hexahydropyrido[4′,3′:4,5]imida-zo[1,2-a]pyrazin-2(1H)-yl)-2-oxoethoxy)-6-chloro-N-methylpicolinamide] | 0.013 µM
16 | CC(=O)N1CCn2c(nc3c2C(c2ccc(Cl)cc2F)N(C(=O)COc2ccc(C(=O)N(C)C)nc2Cl)CC3)C1 (centres unmarked) [Example 5.1.3, 5-(2-(7-acetyl-1-(4-chloro-2-fluorophenyl)-3,4,6,7,8,9-hexahydropyrido[4′,3′:4,5]imidazo[1,2-a]pyrazin-2(1H)-yl)-2-oxoethoxy)-6-chloro-N,N-dimethylpicolinamide] | 0.011 µM
17 | CN(C)C(=O)c1ccc(OCC(=O)N2CCc3nc4n(c3C2c2ccc(Cl)cc2F)CCN(C2CC2)C4)c(Cl)n1 (centres unmarked) [Example 5.1.4, 6-chloro-5-(2-(1-(4-chloro-2-fluorophenyl)-7-cyclopropyl-3,4,6,7,8,9-hexahydropyrido[4′,3′:4,5]imidazo[1,2-a]pyrazin-2(1H)-yl)-2-oxoethoxy)-N,N-dimethylpicolinamide] | 0.041 µM
18 | CCc1nc(C)ccc1OCC(=O)N1CCc2nc3n(c2C1c1ccc(C2CC2)cc1F)CCN(C(=O)OC(C)(C)C)C3 (centres unmarked) [Example 5.2.1, tert-butyl 1-(4-cyclopropyl-2-fluorophenyl)-2-(2-((2-ethyl-6-methylpyridin-3-yl)oxy)acetyl)-1,2,3,4,8,9-hexahydropyrido[4′,3′:4,5]imidazo[1,2-a]pyrazine-7(6H)-carboxylate] | 0.074 µM
19 | CC(C)(C)OC(=O)N1CCn2c(nc3c2C(c2ccc(C4CC4)cc2F)N(C(=O)COc2ccc(N4CCOCC4)cc2Cl)CC3)C1 (centres unmarked) [Example 5.2.2, tert-butyl 2-(2-(2-chloro-4-morpholinophenoxy)acetyl)-1-(4-cyclopropyl-2-fluorophenyl)-1,2,3,4,8,9-hexahydropyrido[4′,3′:4,5]imidazo[1,2-a]pyrazine-7(6H)-carboxylate] | 0.121 µM
20 | CCc1nc(C)ccc1OCC(=O)N1CCc2nc3n(c2C1c1ccc(C2CC2)cc1F)CCNC3 (centres unmarked) [Example 5.2.3, 1-(1-(4-cyclopropyl-2-fluorophenyl)-3,4,6,7,8,9-hexahydropyrido[4′,3′:4,5]imidazo[1,2-a]pyrazin-2(1H)-yl)-2-((2-ethyl-6-methylpyridin-3-yl)oxy)ethanone] | 0.054 µM
21 | O=C(COc1ccc(N2CCOCC2)cc1Cl)N1CCc2nc3n(c2C1c1ccc(C2CC2)cc1F)CCNC3 (centres unmarked) [Example 5.2.4, 2-(2-chloro-4-morpholinophenoxy)-1-(1-(4-cyclopropyl-2-fluorophenyl)-3,4,6,7,8,9-hexahydropyrido[4′,3′:4,5]imidazo[1,2-a]pyrazin-2(1H)-yl)ethanone] | 0.024 µM
22 | CC(=O)N1CCn2c(nc3c2C(c2ccc(C4CC4)cc2F)N(C(=O)COc2ccc(N4CCOCC4)cc2Cl)CC3)C1 (centres unmarked) [Example 5.2.5, 1-(7-acetyl-1-(4-cyclopropyl-2-fluorophenyl)-3,4,6,7,8,9-hexahydropyrido[4′,3′:4,5]imidazo[1,2-a]pyrazin-2(1H)-yl)-2-(2-chloro-4-morpholinophenoxy)ethanone] | 0.007 µM
23 | CCc1nc(C)ccc1OCC(=O)N1CCc2nc3n(c2C1c1ccc(C2CC2)cc1F)CCN(CC1CC1)C3 (centres unmarked) [Example 5.2.6, 1-(1-(4-cyclopropyl-2-fluorophenyl)-7-(cyclopropyl-methyl)-3,4,6,7,8,9-hexahydropyrido[4′,3′:4,5]imida-zo[1,2-a]pyrazin-2(1H)-yl)-2-((2-ethyl-6-methylpyridin-3-yl)oxy)ethanone] | 0.016 µM
